Laboratory results: patent publication US10111892B2, “Anti-cancer agent” (priority 2009, dated 2018)

Legend:
[1] = tested on: A375 (malignant melanoma); test: In vitro anti-tumor activity test (MTT), A375 cells; format: cell-based; settings: 48 hours of culture
Procedure: (§1) [In Vitro Anti-Tumor Activity Test]
(§2) The phosphine transition metal complexes obtained in the examples and the comparative examples were subjected to an in vitro anti-tumor activity test. Specifically, KB (oral squamous cell carcinoma) and A375 (malignant melanoma) were used as cancer cells, and these cells were cultured in an incubator at 37° C. in a culture medium (RPMI-1640 or DEME) to which 10% inactivated fetal calf serum, L-glutamine, sodium pyruvate, 1×10^5 U/L of penicillin, and 100 mg/L of streptomycin had been supplemented. The cells were added such that each well contained 2×10^5 cells. Subsequently, the phosphine transition metal complex dissolved in dimethylsulfoxide was added to the medium and cultured for 48 hours. After the 48 hours of culture, a 5 mg/ml (3,[4,5-dimethylthiazol-2-yl]-2,5-diphenyltetrazolium bromide MTT) solution was added at 20 μl to each well, followed by culture for 3 to 4 hours in an incubator. Thereafter, 100 μl of a solution was further added to each well to completely solubilize the generated formazan crystals. The absorbance of the resultant at 492 nm was then measured, and IC50 was calculated.

[2] = tested on: KM rats; test: Toxicity test, single oral administration to rats; format: in vivo; settings: for Oral administration LD50: male and female KM rats, single oral dose in corn oil, observed to the fourteenth day
Procedure: Toxicity caused when the phosphine transition metal complexes obtained in the examples and the comparative examples were orally administered to rats was tested. Specifically, male and female KM rats were quarantined and raised while being acclimated, and then the selected 20 rats in total including 10 male rats and 10 female rats were formed into a group. The phosphine transition metal complexes obtained in the examples and comparative examples were orally administered once to rats which were fasted over night before the administration and whose weights were recorded, by using corn oil as a solvent and with a design such that a group showing sufficient fatal cases was included to determine LD50.

[3] = tested on: KB (oral squamous cell carcinoma); test: In vitro anti-tumor activity test (MTT), KB cells; format: cell-based; settings: 48 hours of culture
Procedure: as §1, §2

Compound | In vitro anti-tumor activity IC50, A375 [1] | Oral administration LD50 [2] | In vitro anti-tumor activity IC50, KB [3] | toxicity (in words) ([2]; oral administration to rats, compared with the other complexes)
CP(c1nc2ccccc2nc1P(C)C(C)(C)C)C(C)(C)C.CP(c1nc2ccccc2nc1P(C)C(C)(C)C)C(C)(C)C.[Au+].[Cl-] (stereo not shown) [Example 3, Bis(2,3-bis(tert-butylmethylphosphino)quinoxaline)gold(I) chloride] | 1.22 µg/mL | 118.66 mg/kg | 0.97 µg/mL | 
CP(c1nc2ccccc2nc1P(C)C(C)(C)C)C(C)(C)C.CP(c1nc2ccccc2nc1P(C)C(C)(C)C)C(C)(C)C.[Au+].[Cl-] (stereo not shown) [Example 1, bis(2,3-bis(tert-butylmethylphosphino)quinoxaline)gold(I) chloride] | 1.13 µg/mL | 134.37 mg/kg | 0.94 µg/mL | 
CP(c1nc2ccccc2nc1P(C)C(C)(C)C)C(C)(C)C.CP(c1nc2ccccc2nc1P(C)C(C)(C)C)C(C)(C)C.[Au+].[Cl-] (stereo not shown) [Comparative Example 1, Bis(2,3-bis(tert-butylmethylphosphino)quinoxaline)gold(I) chloride, reference compound] | 2.26 µg/mL | 90.99 mg/kg | 1.11 µg/mL | relatively high
Bis(2,3-bis(tert-butylmethylphosphino)quinoxaline) gold(I) chloride [Example 2] | 1.94 µg/mL | 97.44 mg/kg | 1.03 µg/mL | 
